Laboratory results as given in patent EP4772502A1, “ARYL OR HETEROARYL SUBSTITUTED CARBAMATE COMPOUND AND DERIVATIVE AND USE THEREOF” (Shenzhen Zhongge Biological Technology Co., Ltd., priority 2023, dated 2025).

Test system: AMPK
Assay: not given
Settings: Tamura et al., Bioorganic & Medicinal Chemistry Letters, Vol. 68, 2022, 128769; cited from earlier work

In the case of O=C(Nc1ncc(-c2ccc(-c3ccccc3)cc2)s1)O[C@@H]1CO[C@H]2[C@@H]1OC[C@H]2O [compound 11], the AMPK agonist activity is listed as “no AMPK agonist activity”.

Molecular target: T1, AMPKα1β1γ1 (Homo sapiens, UniProt Q13131+Q9Y478)
T1 construct: purchased CARNA 02-113
T1 sequence (Q13131 whole entry): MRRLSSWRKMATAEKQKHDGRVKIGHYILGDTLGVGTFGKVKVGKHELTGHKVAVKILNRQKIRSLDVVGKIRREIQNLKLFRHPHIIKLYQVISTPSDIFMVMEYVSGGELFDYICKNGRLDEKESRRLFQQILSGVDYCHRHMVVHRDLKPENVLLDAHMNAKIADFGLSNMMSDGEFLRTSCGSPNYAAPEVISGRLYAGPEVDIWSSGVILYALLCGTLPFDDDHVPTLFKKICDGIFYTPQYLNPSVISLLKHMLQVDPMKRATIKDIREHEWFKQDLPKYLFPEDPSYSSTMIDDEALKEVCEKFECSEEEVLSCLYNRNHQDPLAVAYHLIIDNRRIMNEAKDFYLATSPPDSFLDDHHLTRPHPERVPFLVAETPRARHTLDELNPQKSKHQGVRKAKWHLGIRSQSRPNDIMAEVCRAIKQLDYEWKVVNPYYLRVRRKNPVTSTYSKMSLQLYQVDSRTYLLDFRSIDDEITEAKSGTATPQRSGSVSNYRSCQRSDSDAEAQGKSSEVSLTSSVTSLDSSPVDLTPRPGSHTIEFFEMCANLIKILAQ
T1 sequence (Q9Y478 whole entry): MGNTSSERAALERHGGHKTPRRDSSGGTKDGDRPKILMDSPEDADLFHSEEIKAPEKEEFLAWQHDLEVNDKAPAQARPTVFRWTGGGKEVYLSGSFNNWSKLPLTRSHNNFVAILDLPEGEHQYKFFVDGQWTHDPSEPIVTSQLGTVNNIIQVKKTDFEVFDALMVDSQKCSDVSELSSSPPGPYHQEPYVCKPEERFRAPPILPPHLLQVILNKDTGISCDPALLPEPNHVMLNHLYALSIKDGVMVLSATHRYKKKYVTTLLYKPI
T1 sequence (P54619 whole entry partner): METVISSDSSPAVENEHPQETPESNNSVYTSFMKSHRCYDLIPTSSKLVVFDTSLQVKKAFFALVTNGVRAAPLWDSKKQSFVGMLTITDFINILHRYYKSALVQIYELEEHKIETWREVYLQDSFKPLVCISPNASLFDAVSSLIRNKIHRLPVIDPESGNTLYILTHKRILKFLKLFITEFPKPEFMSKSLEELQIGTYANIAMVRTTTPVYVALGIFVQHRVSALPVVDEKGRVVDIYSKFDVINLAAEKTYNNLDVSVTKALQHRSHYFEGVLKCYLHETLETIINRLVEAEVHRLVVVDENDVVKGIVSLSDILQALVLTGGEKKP
Assay: In vitro assay for AMPK (α1β1γ1) enzyme agonist activity (TR-FRET)
Type: biochemical
Settings: 1 h; activity of 1 µM A769662 set as 100%; read-out: Top value (%)
Method: Test example 1: In vitro assay for AMPK (α1β1γ1) enzyme agonist activity
Test compounds were dissolved in DMSO to prepare 10 mM stock solution, which was then diluted to the predetermined test concentrations using kinase buffer (50 mM HEPES, 1 mM EDTA, 10 mM MgCl2, 0.01% Brij-35, pH = 7.5). Into a 384-well plate were added 5 µL of AMPKα1β1γ1 (CARNA, 02-113), 2.5 µL of the diluted test compound solution, and 2.5 µL of a mixture of […] and ATP, resulting in the following final concentrations: AMPKα1β1γ1 at 1.6 mg/L, […] at 5 nM, and ATP at 0.1 mM. The components were mixed evenly, and reacted at room temperature for 1 h. Subsequently, 5 µL of LANCE Detection Buffer (CR97-100, PerkinElmer) containing 40 mM EDTA was added. After standing for 5 min, 5 µL of 4× Eu-anti-phospho-CREB Antibody (TRF0200-M, PerkinElmer) was added, and the mixture was allowed to stand at room temperature for 1 h. The values of samples in each well were read using a microplate reader in TR-FRET mode (excitation wavelength: 320 nm; emission wavelengths: 665 nm and 615 nm). By comparing the values with those of the blank control group (1% DMSO) and the positive control group (1 µM A769662), the relative activity of AMPKα1β1γ1 at each test compound concentration (4.57 nM, 13.72 nM, 41.15 nM, 123.46 nM, 370.37 nM, 1111.11 nM, 3333.33 nM, and 10000 nM) was calculated, with the activity of 1 µM A769662 set as 100%. The data were analysed in GraphPad Prism 9 using a Dose-response-Stimulation four-parameter regression model to obtain the Top and EC50 values for the test compounds.

First: NCCCc1ccc(-c2sc(NC(=O)O[C@@H]3CO[C@H]4[C@@H]3OC[C@H]4O)cc2Cl)cc1 [Compound 32]
Second: NCCCOc1ccc(-c2sc(NC(=O)O[C@@H]3CO[C@H]4[C@@H]3OC[C@H]4O)cc2Cl)cc1 [Compound 31]
The Emax of the first is lower: 100 to 150% for the first, 150 to 200% for the second.

First: CCc1cc(NC(=O)O[C@@H]2CO[C@H]3[C@@H]2OC[C@H]3O)sc1-c1ccc(C2(CO)CC2)cc1 [Compound 40]
Second: Cc1cc(NC(=O)O[C@@H]2CO[C@H]3[C@@H]2OC[C@H]3O)sc1-c1ccc(C2(CO)CC2)cc1 [compound 8]
The Emax of the first is lower: 100 to 150% for the first, 200 to 300% for the second.

First: O=C(Nc1cc(Cl)c(-c2ccc(-c3ccccc3)cc2)s1)O[C@@H]1CO[C@H]2[C@@H]1OC[C@H]2O [compound 4]
Second: O=C(Nc1cc(Cl)c(-c2ccc(-c3ccccc3O)cc2)s1)O[C@@H]1CO[C@H]2[C@@H]1OC[C@H]2O [compound 6]
The Emax of the first is lower: 150 to 200% for the first, 200 to 300% for the second.

Compared with O=C(Nc1cc(Cl)c(-c2ccc(C3(CO)CC3)cc2)s1)O[C@H]1CC[C@H](C(=O)O)CC1 [Compound 38], CCOC(=O)[C@H]1CC[C@H](OC(=O)Nc2cc(Cl)c(-c3ccc(C4(CO)CC4)cc3)s2)CC1 [Compound 37] is lower in Emax: 150 to 200% for the first, 70 to 100% for the second.

First: CN1CCC(c2ccc(-c3sc(NC(=O)O[C@@H]4CO[C@H]5[C@@H]4OC[C@H]5O)cc3Cl)cc2)CC1 [compound 24]
Second: O=C(Nc1cc(Cl)c(-c2ccc(N3CCCC3)cc2)s1)O[C@@H]1CO[C@H]2[C@@H]1OC[C@H]2O [compound 14]
The Emax of the first is higher: 150 to 200% for the first, 70 to 100% for the second.

First: O=C(Nc1csc(-c2ccc(C3(CO)CC3)cc2)c1)O[C@@H]1CO[C@H]2[C@@H]1OC[C@H]2O [compound 13]
Second: O=C(Nc1cc(-c2ccc(C3(CO)CC3)cc2)cs1)O[C@@H]1CO[C@H]2[C@@H]1OC[C@H]2O [compound 2]
The Emax of the first is higher: 200 to 300% for the first, 150 to 200% for the second.

O=C(Nc1cc(Cl)c(C#Cc2ccccc2O)s1)O[C@@H]1CO[C@H]2[C@@H]1OC[C@H]2O [compound 20] and O=C(Nc1cc(Cl)c(C#Cc2ccccc2)s1)O[C@@H]1CO[C@H]2[C@@H]1OC[C@H]2O [compound 17] cannot be ordered by Emax: ≥ 300% for the first, 200 to 300% for the second.

First: CS(=O)(=O)c1ccc(-c2ccc(-c3sc(NC(=O)O[C@@H]4CO[C@H]5[C@@H]4OC[C@H]5O)cc3Cl)cc2)cc1 [compound 19]
Second: COc1ccc(-c2sc(NC(=O)O[C@@H]3CO[C@H]4[C@@H]3OC[C@H]4O)cc2Cl)cc1 [compound 10]
The Emax of the first is lower: 150 to 200% for the first, 200 to 300% for the second.

Compared with O=C(Nc1cc(C2CC2)c(-c2ccc(C3(CO)CC3)cc2)s1)O[C@@H]1CO[C@H]2[C@@H]1OC[C@H]2O [compound 22], O=C(Nc1cc(Cl)c(-c2ccc(C3(CO)CC3)cc2)s1)O[C@@H]1CO[C@H]2[C@@H]1OC[C@H]2O [compound 3] is higher in Emax: 150 to 200% for the first, 200 to 300% for the second.

Compared with O=C(Nc1cc(Cl)c(-c2ccc(-c3ccccc3O)cc2)s1)OCCCO [Compound 42], Cn1ccc2cc(-c3sc(NC(=O)OCCCO)cc3Cl)ccc21 [compound 15] is lower in Emax: 150 to 200% for the first, 70 to 100% for the second.

First: O=C(Nc1cc(Cl)c(-c2ccc(OCCCN3CCOCC3)cc2)s1)O[C@@H]1CO[C@H]2[C@@H]1OC[C@H]2O [compound 23]
Second: O=C(Nc1cc(Cl)c(-c2ccc(N3CCOCC3)cc2)s1)O[C@@H]1CO[C@H]2[C@@H]1OC[C@H]2O [compound 9]
The Emax of the first is higher: ≥ 300% for the first, 150 to 200% for the second.

O=C(Nc1cc(Cl)c(-c2ccc3c(ccn3C3CC3)c2)s1)O[C@@H]1CO[C@H]2[C@@H]1OC[C@H]2O [compound 18] and Cn1ccc2cc(-c3sc(NC(=O)O[C@@H]4CO[C@H]5[C@@H]4OC[C@H]5O)cc3Cl)ccc21 [compound 5] fall in the same range of Emax: 150 to 200% for the first, 150 to 200% for the second.

First: O=C(Nc1cc(Cl)c(-c2ccc(C3(CO)CC3)cc2)s1)O[C@H]1CC[C@H](CO)CC1 [Compound 39]
Second: O=C(Nc1cc(-c2ccc(C3(CO)CC3)cc2)c(Cl)s1)O[C@@H]1CO[C@H]2[C@@H]1OC[C@H]2O [compound 1]
The Emax of the first is lower: 100 to 150% for the first, 200 to 300% for the second.

First: O=C(Nc1cc(Cl)c(C#CC2(O)CCC2)s1)O[C@@H]1CO[C@H]2[C@@H]1OC[C@H]2O [Compound 28]
Second: O=C(Nc1cc(Cl)c(-c2ccc(C3(O)CCC3)cc2)s1)O[C@@H]1CO[C@H]2[C@@H]1OC[C@H]2O [compound 7]
The Emax of the first is lower: 70 to 100% for the first, 200 to 300% for the second.
